Where a SMILES comes first, the peptide text is derived from it. Bridges are numbered along the chain shown (N, C = ends).
Each molecule was assayed against ACE-2 (Homo sapiens, UniProt Q9BYF1) (assay: Fluorometric ACE-2 inhibition assay with peptide M-2195 as substrate). Details: ACE-2, M-2195 substrate.
Chain of ACE-2 (Q9BYF1 18-740): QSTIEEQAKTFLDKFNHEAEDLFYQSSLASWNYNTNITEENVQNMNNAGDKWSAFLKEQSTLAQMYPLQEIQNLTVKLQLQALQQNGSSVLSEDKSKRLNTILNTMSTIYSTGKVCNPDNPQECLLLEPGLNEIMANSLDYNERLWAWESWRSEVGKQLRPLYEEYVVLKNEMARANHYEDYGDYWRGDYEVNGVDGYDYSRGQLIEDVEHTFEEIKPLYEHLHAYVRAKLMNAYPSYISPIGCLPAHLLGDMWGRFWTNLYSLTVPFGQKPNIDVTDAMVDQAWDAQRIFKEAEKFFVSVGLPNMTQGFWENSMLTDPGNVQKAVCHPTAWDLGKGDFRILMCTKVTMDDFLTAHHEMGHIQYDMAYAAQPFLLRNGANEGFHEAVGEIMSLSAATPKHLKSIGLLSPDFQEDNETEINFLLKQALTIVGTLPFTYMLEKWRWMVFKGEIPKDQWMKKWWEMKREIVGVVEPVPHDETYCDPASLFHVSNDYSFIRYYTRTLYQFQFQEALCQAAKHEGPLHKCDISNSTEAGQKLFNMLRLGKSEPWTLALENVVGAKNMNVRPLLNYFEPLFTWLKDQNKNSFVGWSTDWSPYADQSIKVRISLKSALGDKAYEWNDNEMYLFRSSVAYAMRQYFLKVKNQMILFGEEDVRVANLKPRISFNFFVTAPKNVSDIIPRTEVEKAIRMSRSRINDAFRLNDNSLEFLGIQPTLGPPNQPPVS
Type: biochemical
Design: nucleotides corresponding to the extracellular domain (M1-S740); FLAG; made in house; host or cells: Sf9 insect cells, recombinant baculovirus (transfer vector pA2); enzyme purified from conditioned media
Description: Substrate stock (10 μL of 10× concentration) was added to each well to be tested in blocks of three vertically down the plate. The reaction was monitored on a Spectrafluor Plus (Tecan) at an excitation wavelength of 340 nm and an emission wavelength of 400 nm (+/−35 nm) every 30 seconds for a time period of 10 minutes.
ACE-2 cleaves off the C-terminal lysine from the peptide with a concomitant increase in fluorescence signal.
The assays were performed in 96-well clear-bottom black plates (Costar, 07-200-590). In each well, 0.45 μg (5 pmoles) of ACE-2 is added to 90 μL of an assay solution containing 100 mM TRIS at pH 7.4, 0.1% Tween, and 0.4% DMSO. Substrate stock at 10 μL of 10× concentration is added to each well (for example, 10 μL of 1 mM stock for a final 100 μM concentration). The reaction was monitored on a Spectrafluor Plus (Tecan) at an excitation wavelength of 340 nm and an emission wavelength of 400 nm (+/−35 nm) every 30 seconds up to 10 minutes. All samples were measured in triplicate. […]
Molecule CC(=O)NCC(=O)N[C@@H](CC(=O)O)C(=O)N[C@@H](CC(C)C)C(=O)N[C@@H](Cc1c[nH]cn1)C(=O)N[C@@H](C)C(=O)N[C@H]1CSSC[C@@H](C(=O)N[C@H](C(=O)N[C@@H](CC(C)C)C(=O)NCC(=O)N[C@@H](CC(=O)O)C(=O)N2CCC[C@H]2C(=O)N[C@@H](CCC(=O)O)C(=O)NCC(=O)NCC(=O)NCC(N)=O)[C@@H](C)O)NC(=O)[C@H](C)NC(=O)[C@H](Cc2c[nH]c3ccccc23)NC(=O)[C@H](Cc2c[nH]c3ccccc23)NC(=O)[C@@H]2CCCN2C(=O)[C@H](CC(=O)O)NC(=O)CNC(=O)[C@H](CCCNC(=N)N)NC(=O)[C@H](C(C)C)NC(=O)[C@@H]2CCCN2C(=O)[C@H](CCCNC(=N)N)NC1=O [DX-513] (Ac-GDLHACRPVRGDPWWACTLGDPEGGG-NH2; disulfide 6-17) has a Ki of 150 nM. Work on CSCC[C@@H]1NC(=O)[C@H](Cc2c[nH]c3ccccc23)NC(=O)[C@@H]2CCCN2C(=O)[C@H](CO)NC(=O)[C@H](CCC(N)=O)NC(=O)[C@H](CCCNC(=N)N)NC(=O)[C@H](CCC(N)=O)NC(=O)[C@@H]2CCCN2C(=O)[C@H](CCCCN)NC(=O)[C@@H](NC(=O)[C@H](Cc2c[nH]cn2)NC(=O)[C@H](CC(C)C)NC(=O)[C@H](CCCNC(=N)N)NC(=O)[C@H](CC(=O)O)NC(=O)CNC(C)=O)CSSC[C@@H](C(=O)N[C@@H](CCC(N)=O)C(=O)N[C@@H](Cc2c[nH]cn2)C(=O)N[C@@H](CC(C)C)C(=O)N[C@@H](CC(=O)O)C(=O)N2CCC[C@H]2C(=O)N[C@@H](CCC(=O)O)C(=O)NCC(=O)NCC(=O)NCC(N)=O)NC(=O)[C@H](CCCCN)NC1=O [DX-512] (Ac-GDRLHCKPQRQSPWMKCQHLDPEGGG-NH2; disulfide 6-17) yielded a Ki of 150 nM.

Same assay, conditions: inhibition of ACE-2 activity, M-2195 substrate; class by % inhibition at ~100 μM and IC50
For CC(=O)NCC(=O)N[C@@H](CC(=O)O)C(=O)N[C@@H](CC(C)C)C(=O)N[C@@H](Cc1c[nH]cn1)C(=O)N[C@@H](C)C(=O)N[C@H]1CSSC[C@@H](C(=O)N[C@H](C(=O)N[C@@H](CC(C)C)C(=O)NCC(=O)N[C@@H](CC(=O)O)C(=O)N2CCC[C@H]2C(=O)N[C@@H](CCC(=O)O)C(=O)NCC(=O)NCC(=O)NCC(N)=O)[C@@H](C)O)NC(=O)[C@H](C)NC(=O)[C@H](Cc2c[nH]c3ccccc23)NC(=O)[C@H](Cc2c[nH]c3ccccc23)NC(=O)[C@@H]2CCCN2C(=O)[C@H](CC(=O)O)NC(=O)CNC(=O)[C@H](CCCNC(=N)N)NC(=O)[C@H](C(C)C)NC(=O)[C@@H]2CCCN2C(=O)[C@H](CCCNC(=N)N)NC1=O [DX-513] (Ac-GDLHACRPVRGDPWWACTLGDPEGGG-NH2; disulfide 6-17), the Inhibition was “++++ (signifies very strong inhibition (˜100% inhibition at 100 μM; with IC50 0.15 μM))”. For CC(=O)NCC(=O)N[C@@H](CC(=O)O)C(=O)N[C@@H](CCCNC(=N)N)C(=O)N[C@@H](Cc1ccc(O)cc1)C(=O)N[C@@H](CC(C)C)C(=O)N[C@H]1CSSC[C@@H](C(=O)N[C@@H](CC(N)=O)C(=O)N[C@@H](Cc2c[nH]c3ccccc23)C(=O)N[C@@H](Cc2ccccc2)C(=O)N[C@@H](CC(=O)O)C(=O)N2CCC[C@H]2C(=O)N[C@@H](CCC(=O)O)C(=O)NCC(=O)NCC(=O)NCC(N)=O)NC(=O)[C@H](Cc2ccccc2)NC(=O)[C@H](CCCCN)NC(=O)[C@H](Cc2c[nH]c3ccccc23)NC(=O)[C@@H]2CCCN2C(=O)[C@H](CCCCN)NC(=O)[C@H](CC(=O)O)NC(=O)[C@H](CCCNC(=N)N)NC(=O)[C@H](CCC(N)=O)NC(=O)[C@@H]2CCCN2C(=O)[C@H](CC(C)C)NC1=O [DX-599] (Ac-GDRYLCLPQRDKPWKFCNWFDPEGGG-NH2; disulfide 6-17), the Inhibition was “++++ (signifies very strong inhibition (˜100% inhibition at 100 μM; with IC50 0.15 μM))”. With CC(=O)NCC(=O)N[C@@H](CO)C(=O)N[C@@H](CCCNC(=N)N)C(=O)NCC(=O)N[C@@H](Cc1ccccc1)C(=O)N[C@H]1CSSC[C@@H](C(=O)N[C@@H](CO)C(=O)N[C@@H](Cc2ccccc2)C(=O)N2CCC[C@H]2C(=O)N[C@@H](C)C(=O)N2CCC[C@H]2C(=O)NCC(=O)N[C@@H](CCC(=O)O)C(=O)NCC(=O)NCC(=O)NCC(N)=O)NC(=O)[C@H](CO)NC(=O)[C@H](CO)NC(=O)[C@H](CC(=O)O)NC(=O)[C@H](CCCNC(=N)N)NC1=O [DX-525] (Ac-GSRGFCRDSSCSFPAPGEGGG-NH2; disulfide 6-11) the Inhibition was “+++ (signifies strong inhibition (˜99% inhibition at ˜100 μM; with IC50 between 0.4-1 μM))”. In the case of CSCC[C@@H]1NC(=O)[C@H](Cc2c[nH]c3ccccc23)NC(=O)[C@@H]2CCCN2C(=O)[C@H](CO)NC(=O)[C@H](CCC(N)=O)NC(=O)[C@H](CCCNC(=N)N)NC(=O)[C@H](CCC(N)=O)NC(=O)[C@@H]2CCCN2C(=O)[C@H](CCCCN)NC(=O)[C@@H](NC(=O)[C@H](Cc2c[nH]cn2)NC(=O)[C@H](CC(C)C)NC(=O)[C@H](CCCNC(=N)N)NC(=O)[C@H](CC(=O)O)NC(=O)CNC(C)=O)CSSC[C@@H](C(=O)N[C@@H](CCC(N)=O)C(=O)N[C@@H](Cc2c[nH]cn2)C(=O)N[C@@H](CC(C)C)C(=O)N[C@@H](CC(=O)O)C(=O)N2CCC[C@H]2C(=O)N[C@@H](CCC(=O)O)C(=O)NCC(=O)NCC(=O)NCC(N)=O)NC(=O)[C@H](CCCCN)NC1=O [DX-512] (Ac-GDRLHCKPQRQSPWMKCQHLDPEGGG-NH2; disulfide 6-17), the Inhibition is reported as “++++ (signifies very strong inhibition (˜100% inhibition at 100 μM; with IC50 0.15 μM))”. CC(=O)NCC(=O)N[C@@H](CC(=O)O)C(=O)N[C@@H](Cc1ccc(O)cc1)C(=O)N[C@@H](CO)C(=O)N[C@@H](Cc1c[nH]cn1)C(=O)N[C@H]1CSSC[C@@H](C(=O)N[C@H](C(=O)N[C@@H](Cc2ccc(O)cc2)C(=O)N2CCC[C@H]2C(=O)N[C@@H](CC(=O)O)C(=O)N2CCC[C@H]2C(=O)N[C@@H](CCC(=O)O)C(=O)NCC(=O)NCC(=O)NCC(N)=O)[C@@H](C)O)NC(=O)[C@H](CCCCN)NC(=O)[C@H](Cc2c[nH]c3ccccc23)NC(=O)[C@H](Cc2c[nH]c3ccccc23)NC(=O)[C@@H]2CCCN2C(=O)[C@H](Cc2ccc(O)cc2)NC(=O)[C@H](Cc2ccc(O)cc2)NC(=O)[C@H](CCCNC(=N)N)NC(=O)[C@H](CC(C)C)NC(=O)[C@@H]2CCCN2C(=O)[C@H](CO)NC1=O [DX-600] was tested, and the Inhibition was “++++ (signifies very strong inhibition (˜100% inhibition at 100 μM; with IC50 0.15 μM))”. CC[C@H](C)[C@@H]1NC(=O)[C@@H]2CCCN2C(=O)[C@H](CO)NC(=O)[C@@H](NC(=O)[C@@H](NC(=O)[C@H](Cc2ccccc2)NC(=O)CNC(=O)[C@H](CC(=O)O)NC(=O)CNC(C)=O)[C@@H](C)O)CSSC[C@@H](C(=O)N[C@@H](CC(=O)O)C(=O)N[C@@H](CC(C)C)C(=O)NCC(=O)N[C@@H](CC(=O)O)C(=O)N2CCC[C@H]2C(=O)N[C@@H](CCC(=O)O)C(=O)NCC(=O)NCC(=O)NCC(N)=O)NC(=O)[C@H](CCCNC(=N)N)NC(=O)[C@H](Cc2ccccc2)NC(=O)[C@H](Cc2c[nH]c3ccccc23)NC(=O)[C@@H]2CCCN2C(=O)[C@H](Cc2ccccc2)NC(=O)[C@H](CCSC)NC(=O)[C@H](CCCNC(=N)N)NC1=O [DX-601] (Ac-GDGFTCSPIRMFPWFRCDLGDPEGGG-NH2; disulfide 6-17) was tested, and the Inhibition was “++++ (signifies very strong inhibition (˜100% inhibition at 100 μM; with IC50 0.15 μM))”. For CC(=O)NCC(=O)N[C@@H](CC(=O)O)C(=O)N[C@@H](Cc1ccccc1)C(=O)N[C@@H](CO)C(=O)N1CCC[C@H]1C(=O)N[C@H]1CSSC[C@@H](C(=O)N2CCC[C@H]2C(=O)N[C@@H](CO)C(=O)NCC(=O)N[C@@H](CC(=O)O)C(=O)N2CCC[C@H]2C(=O)N[C@@H](CCC(=O)O)C(=O)NCC(=O)NCC(=O)NCC(N)=O)NC(=O)[C@H](C(C)C)NC(=O)[C@H](Cc2c[nH]c3ccccc23)NC(=O)[C@H](Cc2c[nH]c3ccccc23)NC(=O)[C@@H]2CCCN2C(=O)[C@H](CO)NC(=O)[C@H](Cc2c[nH]cn2)NC(=O)[C@H](CCCNC(=N)N)NC(=O)[C@H](CC(C)C)NC(=O)[C@H](C)NC(=O)[C@H](CCCCN)NC1=O [DX-602] (Ac-GDFSPCKALRHSPWWVCPSGDPEGGG-NH2; disulfide 6-17), the Inhibition was “++++ (signifies very strong inhibition (˜100% inhibition at 100 μM; with IC50 0.15 μM))”. CSCC[C@@H]1NC(=O)[C@H](CCSC)NC(=O)[C@@H]2CCCN2C(=O)[C@H](C)NC(=O)[C@H](Cc2c[nH]c3ccccc23)NC(=O)[C@H](Cc2c[nH]cn2)NC(=O)[C@@H](NC(=O)[C@@H](NC(=O)[C@H](CCC(=O)O)NC(=O)[C@H](Cc2c[nH]c3ccccc23)NC(=O)CNC(=O)[C@H](C)NC(C)=O)C(C)C)CSSC[C@@H](C(=O)N[C@@H](CCCCN)C(=O)N[C@@H](Cc2c[nH]cn2)C(=O)NCC(=O)NCC(=O)N[C@H](C(=O)N[C@@H](CCC(=O)O)C(=O)NCC(=O)NCC(=O)NCC(N)=O)[C@@H](C)O)NC1=O [DX-529] (Ac-AGWEVCHWAPMMCKHGGTEGGG-NH2; disulfide 6-13) was tested, and the Inhibition was “+++ (signifies strong inhibition (˜99% inhibition at ˜100 μM; with IC50 between 0.4-1 μM))”. In the case of CC[C@H](C)[C@H](NC(=O)[C@H](CCCNC(=N)N)NC(=O)[C@H](CO)NC(=O)CNC(C)=O)C(=O)NCC(=O)N[C@H]1CSSC[C@@H](C(=O)N[C@@H](CC(N)=O)C(=O)N[C@@H](Cc2c[nH]c3ccccc23)C(=O)N[C@@H](Cc2c[nH]c3ccccc23)C(=O)N[C@@H](C)C(=O)N2CCC[C@H]2C(=O)NCC(=O)N[C@@H](CCC(=O)O)C(=O)NCC(=O)NCC(=O)NCC(N)=O)NC(=O)[C@H](CCCNC(=N)N)NC(=O)[C@H](CO)NC(=O)[C@H](CC(=O)O)NC(=O)[C@H](CCCNC(=N)N)NC1=O [DX-524] (Ac-GSRIGCRDSRCNWWAPGEGGG-NH2; disulfide 6-11), the Inhibition is reported as “+++ (signifies strong inhibition (˜99% inhibition at ˜100 μM; with IC50 between 0.4-1 μM))”. For CC(=O)N[C@@H](C)C(=O)NCC(=O)N[C@@H](CO)C(=O)N[C@@H](CC(=O)O)C(=O)N[C@@H](Cc1c[nH]c2ccccc12)C(=O)N[C@H]1CSSC[C@@H](C(=O)N[C@@H](Cc2ccccc2)C(=O)N[C@@H](Cc2c[nH]cn2)C(=O)N[C@@H](CCC(N)=O)C(=O)NCC(=O)N[C@H](C(=O)N[C@@H](CCC(=O)O)C(=O)NCC(=O)NCC(=O)NCC(N)=O)[C@@H](C)O)NC(=O)[C@@H]2CCCN2C(=O)[C@H](CC(N)=O)NC(=O)[C@H](CC(N)=O)NC(=O)[C@H](Cc2c[nH]c3ccccc23)NC(=O)[C@H]([C@@H](C)O)NC(=O)CNC1=O [DX-531] (Ac-AGSDWCGTWNNPCFHQGTEGGG-NH2; disulfide 6-13), the Inhibition was “+++ (signifies strong inhibition (˜99% inhibition at ˜100 μM; with IC50 between 0.4-1 μM))”.

From patent US20030091557A1, “Methods and compositions for modulating ACE-2 activity” (priority 2001, published 2003)
